Results as given in ChEMBL document CHEMBL1201862, “PubChem BioAssay data set” (2004).
Active and inactive are the calls of the source.

How the values were obtained:
[1] = target: Potassium voltage-gated channel subfamily KQT member 2 (Rattus norvegicus, UniProt O88943); experiment: KCNQ2 potassium channel inhibitors, dose response, cell-based, automated electrophysiology, set II, rat KCNQ2 (AID 588637); type: functional
[2] = target: T1, Probable nicotinate-nucleotide adenylyltransferase (Staphylococcus aureus (strain N315), UniProt P65502); type: functional, Staphylococcus aureus subsp. aureus N315;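 for IC50 Mean: confirmatory dose-response retesting of NadD inhibitor hits first found in an ultra-high-throughput screen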
T1 sequence (P65502 whole entry): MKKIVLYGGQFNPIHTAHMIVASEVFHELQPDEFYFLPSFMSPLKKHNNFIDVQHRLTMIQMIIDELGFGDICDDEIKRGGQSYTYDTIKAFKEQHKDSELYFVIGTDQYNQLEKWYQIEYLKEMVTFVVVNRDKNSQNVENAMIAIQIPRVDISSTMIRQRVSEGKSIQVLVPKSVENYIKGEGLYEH

cells [3] = type: functional, cell-based
cells [4] = type: functional, cell-based; remark: listed apart in the source
[5] = target: T1, Probable nicotinate-nucleotide adenylyltransferase; type: functional, Staphylococcus aureus subsp. aureus N315; conditions: read-out: IC50_Mean
[6] = Luminescence Cell-Based Dose Retest to Confirm Inhibitors of Cancer Stem Cells. [Related pubchem assays (depositor defined):AID2717, AID2721]; type: functional; conditions: Homo sapiens
[7] = target: Photoreceptor-specific nuclear receptor (Homo sapiens, UniProt Q9Y5X4); type: functional, cell-based;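 note: CHO-S cells with Gal4-NCOR and VP16-NR2E3 two-hybrid luciferase reporter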
Sequence of Photoreceptor-specific nuclear receptor (Q9Y5X4 whole entry, the tested form may be a part): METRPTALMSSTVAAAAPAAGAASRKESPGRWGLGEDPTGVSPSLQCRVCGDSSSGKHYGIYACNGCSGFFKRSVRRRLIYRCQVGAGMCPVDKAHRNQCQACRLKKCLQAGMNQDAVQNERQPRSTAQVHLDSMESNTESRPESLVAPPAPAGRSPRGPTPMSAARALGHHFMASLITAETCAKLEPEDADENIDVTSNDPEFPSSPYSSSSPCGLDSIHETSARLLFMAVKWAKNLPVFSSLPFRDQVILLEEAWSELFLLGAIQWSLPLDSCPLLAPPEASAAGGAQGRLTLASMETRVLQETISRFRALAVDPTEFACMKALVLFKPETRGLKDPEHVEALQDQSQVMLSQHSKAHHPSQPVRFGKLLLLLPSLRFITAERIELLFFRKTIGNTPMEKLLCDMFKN

[8] = target: T2, High affinity choline transporter 1 (Homo sapiens, UniProt Q9GZV3); experiment: CHT inhibitors, dose response, cell-based, 10-point CRC, membrane potential dye (AID 588401); type: functional;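 note: membrane potential dye fluorescence of choline-evoked depolarization via CHT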
T2 sequence (Q9GZV3 whole entry): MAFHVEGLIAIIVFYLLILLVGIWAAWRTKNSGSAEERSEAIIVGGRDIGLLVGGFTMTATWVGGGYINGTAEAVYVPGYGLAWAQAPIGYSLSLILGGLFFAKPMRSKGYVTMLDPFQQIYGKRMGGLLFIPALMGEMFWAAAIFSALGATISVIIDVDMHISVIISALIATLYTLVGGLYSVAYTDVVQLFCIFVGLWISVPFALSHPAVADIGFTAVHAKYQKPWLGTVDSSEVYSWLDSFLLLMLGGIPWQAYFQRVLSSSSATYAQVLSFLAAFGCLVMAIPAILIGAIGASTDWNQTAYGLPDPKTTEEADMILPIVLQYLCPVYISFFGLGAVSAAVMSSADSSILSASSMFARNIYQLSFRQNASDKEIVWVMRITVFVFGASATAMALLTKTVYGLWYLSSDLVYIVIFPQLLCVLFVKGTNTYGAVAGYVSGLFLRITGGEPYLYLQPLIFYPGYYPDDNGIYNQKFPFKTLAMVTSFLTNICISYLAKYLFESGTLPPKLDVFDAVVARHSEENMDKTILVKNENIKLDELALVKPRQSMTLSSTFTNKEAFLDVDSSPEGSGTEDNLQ

[9] = A cytotoxicity screen of small molecule inhibitors of the PhoP region in Salmonella typhi identified in the primary screen. [Related pubchem assays: 1850, 1864, 1985 ]; type: functional
[10] = target: T2, High affinity choline transporter 1; experiment: CHT inhibitors, dose response, cell-based, 5-point CRC, membrane potential dye (AID 504840); type: functional
[11] = target: Ras and Rab interactor 1/Tyrosine-protein kinase ABL1 (Homo sapiens, UniProt P00519+Q13671); type: functional;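 note: biochemical TR-FRET dose-response test measuring inhibition of binding between Rin1 and Abl proteins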
Sequence of Ras and Rab interactor 1/Tyrosine-protein kinase ABL1 (P00519 whole entry, the tested form may be a part): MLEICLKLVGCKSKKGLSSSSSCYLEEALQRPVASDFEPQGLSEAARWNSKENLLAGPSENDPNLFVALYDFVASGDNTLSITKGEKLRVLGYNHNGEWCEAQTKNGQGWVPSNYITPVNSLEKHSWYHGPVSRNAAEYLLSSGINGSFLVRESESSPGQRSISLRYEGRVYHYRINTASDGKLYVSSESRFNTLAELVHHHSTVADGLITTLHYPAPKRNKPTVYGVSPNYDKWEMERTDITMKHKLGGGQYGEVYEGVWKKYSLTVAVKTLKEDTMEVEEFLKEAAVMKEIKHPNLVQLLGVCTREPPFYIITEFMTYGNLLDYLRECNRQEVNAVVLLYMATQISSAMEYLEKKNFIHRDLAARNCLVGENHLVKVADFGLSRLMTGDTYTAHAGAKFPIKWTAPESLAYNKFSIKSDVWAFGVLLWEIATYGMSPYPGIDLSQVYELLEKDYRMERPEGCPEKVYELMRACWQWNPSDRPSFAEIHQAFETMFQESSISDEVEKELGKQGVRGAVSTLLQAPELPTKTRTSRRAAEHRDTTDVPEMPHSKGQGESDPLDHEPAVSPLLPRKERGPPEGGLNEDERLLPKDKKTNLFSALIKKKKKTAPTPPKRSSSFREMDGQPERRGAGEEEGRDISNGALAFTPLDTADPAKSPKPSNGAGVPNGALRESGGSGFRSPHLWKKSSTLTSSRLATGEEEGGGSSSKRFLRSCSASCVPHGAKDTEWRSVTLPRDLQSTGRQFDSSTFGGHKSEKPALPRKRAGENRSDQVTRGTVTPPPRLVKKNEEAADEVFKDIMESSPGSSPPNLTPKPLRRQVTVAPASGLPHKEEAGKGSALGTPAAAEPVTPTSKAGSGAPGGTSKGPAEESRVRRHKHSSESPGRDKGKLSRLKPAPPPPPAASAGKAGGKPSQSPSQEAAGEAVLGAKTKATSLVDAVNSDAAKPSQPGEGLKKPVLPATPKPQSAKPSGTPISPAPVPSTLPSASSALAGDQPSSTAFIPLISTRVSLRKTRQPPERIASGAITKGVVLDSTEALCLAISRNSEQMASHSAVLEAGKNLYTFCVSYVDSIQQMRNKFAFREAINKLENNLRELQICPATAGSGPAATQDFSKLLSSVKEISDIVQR
Sequence of Ras and Rab interactor 1/Tyrosine-protein kinase ABL1 (Q13671 whole entry, the tested form may be a part): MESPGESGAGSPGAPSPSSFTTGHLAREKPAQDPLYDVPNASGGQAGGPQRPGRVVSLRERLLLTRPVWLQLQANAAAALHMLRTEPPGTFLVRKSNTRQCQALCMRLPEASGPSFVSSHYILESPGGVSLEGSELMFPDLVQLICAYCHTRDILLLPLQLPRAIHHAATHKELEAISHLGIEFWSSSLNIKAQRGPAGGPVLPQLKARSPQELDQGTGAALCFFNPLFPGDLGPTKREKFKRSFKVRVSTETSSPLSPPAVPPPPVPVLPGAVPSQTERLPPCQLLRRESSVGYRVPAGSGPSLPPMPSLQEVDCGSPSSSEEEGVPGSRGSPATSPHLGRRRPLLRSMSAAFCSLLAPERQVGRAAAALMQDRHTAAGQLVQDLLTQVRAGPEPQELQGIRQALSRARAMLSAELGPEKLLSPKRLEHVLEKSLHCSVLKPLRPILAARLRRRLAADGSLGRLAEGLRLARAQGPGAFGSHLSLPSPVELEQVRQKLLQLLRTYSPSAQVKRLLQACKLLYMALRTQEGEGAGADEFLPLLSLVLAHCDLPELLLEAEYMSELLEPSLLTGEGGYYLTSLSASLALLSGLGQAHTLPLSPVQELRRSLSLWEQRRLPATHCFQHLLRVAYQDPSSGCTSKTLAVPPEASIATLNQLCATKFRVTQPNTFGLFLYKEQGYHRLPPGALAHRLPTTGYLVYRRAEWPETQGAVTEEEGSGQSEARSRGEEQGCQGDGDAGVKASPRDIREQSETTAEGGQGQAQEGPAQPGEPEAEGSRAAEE

[12] = ARNT/TACC3 interaction disruptors, potency, confirmation, biochemical, AlphaScreen, cherry-picked samples (AID 651703); type: functional, Homo sapiens;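 note: His-tagged ARNT PAS-B domain paired with GST-TACC3 E629A dimer coactivator fragment; potency of inhibitors that break up the complex and lower AlphaScreen signal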
[13] = target: T3, ATP-dependent translocase ABCB1 (Homo sapiens, UniProt P08183); experiment: ABCB1 efflux inhibitor potency, dose response, Jurkat-DNR cells, JC-1, flow cytometry, set 2 (AID 504569); type: functional; conditions: read-out: EC50_MICROM_;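 note: potency of pump inhibitors that raise cellular JC-1 green fluorescence up to the nicardipine level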
T3 sequence (P08183 whole entry): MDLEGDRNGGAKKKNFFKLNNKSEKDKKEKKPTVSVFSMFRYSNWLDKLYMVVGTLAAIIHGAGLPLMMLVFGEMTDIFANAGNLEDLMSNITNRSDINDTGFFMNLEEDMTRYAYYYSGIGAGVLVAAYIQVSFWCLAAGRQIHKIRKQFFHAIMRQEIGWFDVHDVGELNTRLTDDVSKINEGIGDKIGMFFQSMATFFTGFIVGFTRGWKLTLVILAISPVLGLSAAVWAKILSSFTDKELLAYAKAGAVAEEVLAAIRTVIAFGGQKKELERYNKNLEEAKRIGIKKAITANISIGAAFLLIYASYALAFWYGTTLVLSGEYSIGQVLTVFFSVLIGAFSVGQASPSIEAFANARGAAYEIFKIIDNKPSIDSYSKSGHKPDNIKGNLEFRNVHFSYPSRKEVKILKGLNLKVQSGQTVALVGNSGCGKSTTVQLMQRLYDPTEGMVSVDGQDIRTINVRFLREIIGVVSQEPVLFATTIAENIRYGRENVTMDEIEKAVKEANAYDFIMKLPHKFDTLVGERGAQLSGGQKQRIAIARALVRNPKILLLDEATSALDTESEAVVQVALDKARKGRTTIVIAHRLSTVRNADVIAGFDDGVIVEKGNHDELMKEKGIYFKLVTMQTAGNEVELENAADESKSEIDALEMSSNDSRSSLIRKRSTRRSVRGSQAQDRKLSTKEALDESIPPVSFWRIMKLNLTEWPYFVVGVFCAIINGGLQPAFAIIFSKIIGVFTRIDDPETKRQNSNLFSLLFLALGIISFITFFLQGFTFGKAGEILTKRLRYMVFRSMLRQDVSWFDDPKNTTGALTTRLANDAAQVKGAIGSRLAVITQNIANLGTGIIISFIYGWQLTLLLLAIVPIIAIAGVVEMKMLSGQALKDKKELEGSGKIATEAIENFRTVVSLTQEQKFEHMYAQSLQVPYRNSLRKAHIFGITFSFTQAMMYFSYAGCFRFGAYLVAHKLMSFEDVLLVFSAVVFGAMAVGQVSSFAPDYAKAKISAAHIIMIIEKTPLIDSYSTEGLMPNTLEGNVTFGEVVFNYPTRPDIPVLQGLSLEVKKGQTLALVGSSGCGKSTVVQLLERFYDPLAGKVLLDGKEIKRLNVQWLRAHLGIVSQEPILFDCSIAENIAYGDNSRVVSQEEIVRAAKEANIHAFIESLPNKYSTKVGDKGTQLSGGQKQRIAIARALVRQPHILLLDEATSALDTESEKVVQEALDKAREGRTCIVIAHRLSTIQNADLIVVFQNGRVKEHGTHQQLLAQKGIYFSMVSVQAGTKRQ

[14] = target: T3, ATP-dependent translocase ABCB1; experiment: ABCG2 efflux pump inhibitor potency, dose response, Ig-MXP3 cells, JC-1, flow cytometry, set 2 (AID 504566); type: functional; conditions: read-out: EC50_MICROM_;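 note: flow cytometry median green fluorescence of retained JC-1 dye; potency of efflux pump inhibition measured as rising substrate retention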
[15] = target: ATP-dependent molecular chaperone HSP82 (Candida albicans (strain WO-1) (Yeast), UniProt C4YTQ8); experiment: loss of DOC-induced GRE-beta-galactosidase reporter signal, dose response, Hsp90 inhibitor project, S. cerevisiae, luminescence (AID 2400); type: functional, cell-based;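 note: beta-galactosidase luminescence from glucocorticoid response element reporter as proxy for Hsp90 function; inhibitor potency where signal loss means Hsp90 inhibition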
[16] = inhibitors of intracellular T. cruzi replication, confirmation, NIH3T3 host cells, beta-gal luminescence (AID 2044); type: functional, cell-based;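 note: intracellular parasites grown in NIH/3T3 mouse fibroblasts as host cells; luminescent beta-galactosidase reporter signal from transgenic T. cruzi replicating inside host cells; inhibitors lower the luminescence signal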
INS1 = experiment: beta cell apoptosis inhibitors, cytokine rescue, dose response, luminescence, retest (AID 449756); type: functional, cell-based; conditions: Rattus norvegicus;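 note: cell death triggered by IL-1 beta plus TNF-alpha plus IFN-gamma mixture; protective hits raise ATP signal compared with cytokine alone wells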
[17] = cytotoxicity toward NIH3T3 fibroblasts, dose response, counter-screen, cell-based, ATP luminescence, mouse fibroblasts (AID 2010); type: functional;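 note: cells exposed to compound for about 90 hours before reading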
[18] = C. albicans growth with fluconazole, confirmation, fluorescence, retest (AID 2467); type: functional, cell-based
[19] = inhibitors of SNCA 5'UTR-driven reporter translation, confirmation, H4 neuroglioma cells, luminescence (AID 1988); type: functional, cell-based
[20] = inhibitors of firefly luciferase expression or activity, dose response, H4 neuroglioma cells, luminescence (AID 1990); type: functional, cell-based
[21] = NIH-3T3 fibroblast cytotoxicity, dose response, cytotoxicity control, cell-based, fluorescence, Alamar Blue, secondary assay (AID 2327); type: functional;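 note: NIH-3T3 mouse fibroblasts cultured with fluconazole at 8 µg/mL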
[22] = Luminescence Cell-Based Dose Response HTS to Identify Inhibitors of 5'UTR Stem-Loop Driven Prion Protein mRNA Translation in H4 Neuroglioblastoma Cells. [Related pubchem assays: 1827 (Project Summary), 1813 (Primary HTS)]; type: functional
[23] = target: T4, Serine/threonine-protein phosphatase (Candida dubliniensis (strain CD36 / CBS 7987 / NCPF 3949 / NRRLY-17841) (Yeast), UniProt B9W6M3); experiment: calcineurin pathway inhibitors in yeast reporter, dose response, S. cerevisiae, CDRE-lacZ, luminescence, secondary (AID 2388); type: functional, cell-based;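 note: yeast reporter cells carrying a calcineurin-responsive lacZ construct stimulated with calcium chloride; luminescent beta-galactosidase reporter signal in whole cells rather than isolated phosphatase activity; potency for inhibition where a drop in reporter signal means calcineurin blockade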
T4 sequence (B9W6M3 whole entry): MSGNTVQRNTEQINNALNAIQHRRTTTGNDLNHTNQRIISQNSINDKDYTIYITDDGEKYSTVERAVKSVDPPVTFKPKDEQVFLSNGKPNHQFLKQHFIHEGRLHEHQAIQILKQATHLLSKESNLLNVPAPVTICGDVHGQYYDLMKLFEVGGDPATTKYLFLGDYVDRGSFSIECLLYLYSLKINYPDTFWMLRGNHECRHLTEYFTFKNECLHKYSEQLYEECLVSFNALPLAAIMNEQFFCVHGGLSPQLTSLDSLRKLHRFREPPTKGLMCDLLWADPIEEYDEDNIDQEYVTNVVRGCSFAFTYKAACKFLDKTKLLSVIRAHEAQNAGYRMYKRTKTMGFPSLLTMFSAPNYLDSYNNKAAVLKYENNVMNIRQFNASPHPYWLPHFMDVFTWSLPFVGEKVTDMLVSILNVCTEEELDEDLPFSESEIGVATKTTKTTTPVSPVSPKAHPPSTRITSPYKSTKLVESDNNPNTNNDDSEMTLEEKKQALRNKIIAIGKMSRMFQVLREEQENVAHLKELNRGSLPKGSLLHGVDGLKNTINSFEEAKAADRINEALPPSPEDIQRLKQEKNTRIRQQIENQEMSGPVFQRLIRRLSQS

Leucine aminopeptidase = target: T5, Leucine aminopeptidase (Plasmodium falciparum 3D7, UniProt Q8IL11); experiment: P. falciparum M17LAP inhibitors, primary screen, biochemical, fluorogenic H-Leu-NHMec substrate, 1536-well (AID 1619); type: functional
T5 sequence (Q8IL11 whole entry): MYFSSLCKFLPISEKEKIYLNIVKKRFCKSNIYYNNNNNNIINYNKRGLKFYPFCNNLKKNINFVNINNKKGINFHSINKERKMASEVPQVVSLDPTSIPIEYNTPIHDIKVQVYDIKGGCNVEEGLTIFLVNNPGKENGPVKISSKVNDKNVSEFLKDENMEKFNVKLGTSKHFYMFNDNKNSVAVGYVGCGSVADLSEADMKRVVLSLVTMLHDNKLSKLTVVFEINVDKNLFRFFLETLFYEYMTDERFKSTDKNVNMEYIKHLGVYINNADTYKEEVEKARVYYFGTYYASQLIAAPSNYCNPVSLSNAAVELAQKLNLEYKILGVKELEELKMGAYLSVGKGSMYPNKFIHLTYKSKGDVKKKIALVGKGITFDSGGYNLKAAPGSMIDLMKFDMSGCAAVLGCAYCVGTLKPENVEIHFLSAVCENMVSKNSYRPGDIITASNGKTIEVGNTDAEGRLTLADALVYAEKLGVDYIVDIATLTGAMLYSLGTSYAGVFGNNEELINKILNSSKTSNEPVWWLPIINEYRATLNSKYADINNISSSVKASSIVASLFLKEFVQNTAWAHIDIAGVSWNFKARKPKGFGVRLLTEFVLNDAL

Sequence of Potassium voltage-gated channel subfamily KQT member 2 (O88943 whole entry): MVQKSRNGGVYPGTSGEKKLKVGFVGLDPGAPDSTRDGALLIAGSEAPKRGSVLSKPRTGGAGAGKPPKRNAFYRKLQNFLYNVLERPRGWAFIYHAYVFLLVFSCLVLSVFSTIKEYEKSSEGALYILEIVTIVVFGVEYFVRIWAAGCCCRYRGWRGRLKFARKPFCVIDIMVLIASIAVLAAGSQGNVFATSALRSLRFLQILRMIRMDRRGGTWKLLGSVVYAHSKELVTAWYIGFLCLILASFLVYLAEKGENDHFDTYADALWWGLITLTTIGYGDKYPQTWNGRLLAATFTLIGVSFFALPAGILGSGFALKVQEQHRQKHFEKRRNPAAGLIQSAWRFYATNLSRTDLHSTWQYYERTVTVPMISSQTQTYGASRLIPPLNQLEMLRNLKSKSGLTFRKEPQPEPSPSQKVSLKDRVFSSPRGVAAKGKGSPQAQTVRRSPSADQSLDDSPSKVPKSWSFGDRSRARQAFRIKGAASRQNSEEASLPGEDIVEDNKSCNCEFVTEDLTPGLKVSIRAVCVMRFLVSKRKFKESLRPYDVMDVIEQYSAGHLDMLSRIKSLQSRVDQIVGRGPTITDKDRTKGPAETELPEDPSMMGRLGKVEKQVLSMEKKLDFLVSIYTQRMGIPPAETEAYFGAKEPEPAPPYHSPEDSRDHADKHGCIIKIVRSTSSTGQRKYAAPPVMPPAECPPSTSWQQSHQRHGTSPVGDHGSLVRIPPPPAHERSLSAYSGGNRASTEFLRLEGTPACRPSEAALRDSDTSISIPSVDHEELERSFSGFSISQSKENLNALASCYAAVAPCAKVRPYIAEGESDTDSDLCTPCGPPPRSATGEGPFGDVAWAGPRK

With COC(=O)C(Cc1ccccc1)NCC(=O)Nc1cccc(Cl)c1C (stereo not drawn) the IC50 [1] was 1.57 µM (active).

For Cc1ccc(C(=O)Nc2cccc([N+](=O)[O-])c2)cc1S(=O)(=O)Nc1ccc(NC(=O)c2ccccc2)cc1, the IC50 [2] was 25.9 µM (active), the EC50 (cells [3]) was > 350 µM (not active) and the EC50 (cells [4]) was > 350 µM (not active). The IC50 [5] was 61.1 µM (active).

For O=C(NC(=O)N1CCN(c2cccc(Cl)c2)CC1)c1ccc(Cl)cc1, the AC50 [6] was 0.263 µM (active) and the IC50 [7] was 3.05 µM (active).

With NS(=O)(=O)c1ccc(CNc2ccc3ccccc3n2)cc1 the IC50 [8] was 3.57 µM (active), the EC50 [9] was > 50 µM (active) and the IC50 [10] was 3.76 µM (active).

For COc1ccc(-n2c(C)cc(C(=O)COC(=O)c3ccc(O)cc3O)c2C)cc1, the IC50 [7] was 5.7 µM (active).

In the case of CCc1nnc(NC(=O)CCc2nc(C3=CCN(C)CC3)no2)s1, the IC50 [11] is reported as 3.81 µM (active).

With CSc1ccccc1OCc1cc(C(=O)N2CCNC(=O)C2)no1 the IC50 [11] was 6.88 µM (active).

In the case of COc1ccc2cc(C(c3nnnn3CCc3ccccc3)N3CCCC(C)C3)c(=O)[nH]c2c1 (stereo not drawn), the IC50 [1] is reported as 2.7 µM (active).

In the case of Cc1ccc(CNC(=O)c2ccccc2NS(=O)(=O)c2ccc(Cl)nc2)cc1, the IC50 [8] is reported as 4.22 µM (active) and the IC50 [10] is reported as 7.31 µM (active).

For C[C@@H]1CCCCO[C@@H](CN(C)C(=O)Nc2ccc3c(c2)OCO3)[C@@H](C)CN([C@@H](C)CO)C(=O)c2cc(N(C)C)ccc2O1, the AC50 [12] was 114 µM (active).

In the case of O=C(c1ccco1)N1CCN(c2cc(-c3ccccc3)nc3cc(-c4ccc(Cl)cc4)nn23)CC1, the EC50 [13] is reported as 2.6 µM (active) and the EC50 [14] is reported as 0.99 µM (active).

In the case of O=C(c1ccc(Cl)cc1)N1CCN(c2cc(-c3ccccc3)nc3cc(-c4cccc(Cl)c4)nn23)CC1, the EC50 [13] is reported as 1.74 µM (active) and the EC50 [14] is reported as 1.99 µM (active).

For Cc1ccc(C(=O)O/N=C/c2c(N3CCOCC3)n(C)c3ccccc23)cc1, the EC50 [15] was > 160 µM (inactive), the EC50 [16] was 0.799 µM (active) and the AC50 (INS1) was 0.915 µM (active). For the same molecule, the EC50 [17] was 3.44 µM (active), the EC50 [18] was 0.419 µM (active) and the EC50 [19] was > 120 µM (not active). For the same molecule, the EC50 [20] was > 120 µM (not active), the EC50 [21] was > 160 µM (inconclusive) and the EC50 [22] was 10.9 µM (active). For the same molecule, the EC50 [23] was > 180 µM (inactive).

For O=C(O)COc1ccccc1/C=N/NC(=O)c1cccc(S(=O)(=O)Nc2cccc(Cl)c2)c1, the IC50 (Leucine aminopeptidase) was 21.3 µM (active) and the AC50 [12] was 73.8 µM (active).
